Source: US20040121994A1, “Novel amides that activate soluble guanylate cyclase” (priority 2002, published 2004)

Target: T1, soluble guanylate cyclase (sGC), α1 and β1 subunits of guanylate cyclase expressed in Sf9 cells (Homo sapiens, UniProt Q02108+Q02153)
T1 construct: made in house; host or cells: Sf9 insect cells (baculovirus co-infection)
T1 sequence (Q02108 1-690): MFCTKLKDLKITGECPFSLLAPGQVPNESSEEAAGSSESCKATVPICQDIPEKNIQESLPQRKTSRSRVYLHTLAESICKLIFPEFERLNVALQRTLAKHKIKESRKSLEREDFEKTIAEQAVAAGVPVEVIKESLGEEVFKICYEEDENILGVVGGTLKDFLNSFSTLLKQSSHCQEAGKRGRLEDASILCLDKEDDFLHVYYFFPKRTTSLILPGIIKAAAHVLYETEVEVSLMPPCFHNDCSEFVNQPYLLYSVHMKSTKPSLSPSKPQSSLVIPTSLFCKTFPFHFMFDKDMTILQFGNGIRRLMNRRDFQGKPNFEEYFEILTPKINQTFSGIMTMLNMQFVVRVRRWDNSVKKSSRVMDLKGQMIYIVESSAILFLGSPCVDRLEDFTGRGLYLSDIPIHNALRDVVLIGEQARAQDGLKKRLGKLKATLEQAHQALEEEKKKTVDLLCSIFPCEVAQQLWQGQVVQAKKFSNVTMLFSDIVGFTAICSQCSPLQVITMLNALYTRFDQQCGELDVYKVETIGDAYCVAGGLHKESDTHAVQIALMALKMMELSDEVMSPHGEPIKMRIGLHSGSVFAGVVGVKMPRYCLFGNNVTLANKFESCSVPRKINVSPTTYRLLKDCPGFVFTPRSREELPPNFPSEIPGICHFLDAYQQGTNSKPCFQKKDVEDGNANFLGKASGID
T1 sequence (Q02153 1-619): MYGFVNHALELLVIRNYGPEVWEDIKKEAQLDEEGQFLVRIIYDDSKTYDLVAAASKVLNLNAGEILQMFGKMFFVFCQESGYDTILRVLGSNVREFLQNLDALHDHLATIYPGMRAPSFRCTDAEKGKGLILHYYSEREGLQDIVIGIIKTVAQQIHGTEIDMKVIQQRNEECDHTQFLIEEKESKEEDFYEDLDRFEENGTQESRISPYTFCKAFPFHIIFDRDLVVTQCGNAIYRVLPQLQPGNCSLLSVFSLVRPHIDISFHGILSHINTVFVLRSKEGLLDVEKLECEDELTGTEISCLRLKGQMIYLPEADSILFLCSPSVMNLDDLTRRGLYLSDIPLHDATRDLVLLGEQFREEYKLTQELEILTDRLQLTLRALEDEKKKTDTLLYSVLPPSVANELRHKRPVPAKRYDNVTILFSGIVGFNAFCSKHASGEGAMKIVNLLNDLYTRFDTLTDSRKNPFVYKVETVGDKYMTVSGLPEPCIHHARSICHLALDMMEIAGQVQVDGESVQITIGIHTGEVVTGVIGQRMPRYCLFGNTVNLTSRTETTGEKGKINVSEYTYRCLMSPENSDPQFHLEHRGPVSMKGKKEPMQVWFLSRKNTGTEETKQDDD
Assay: Guanylate cyclase assay (formation of cyclic GMP from GTP)
Format: biochemical
Conditions: for Mean activation at 100 μM: (activity of compound at 100 μM with 1 μM SNP)−(activity of compound at 100 μM)/(activity of SNP at 1 μM)−(basal activity of sGC); for Mean efficacy of compound combined with 1 μM of SNP, [%]: compound at 100 μM with 1 μM sodium nitro prusside (SNP); for Mean efficacy of compound combined with 1 μM of SNP, [%] / Emax at 100 µM: normalized with the activity of 100 μM YC-1 (without SNP) as 100%; for Emax at 100 µM: compound at 100 μM without SNP, read-out: Mean basal efficacy of compound alone at 100 μM, [%]
Experimental: Sf9 cells were cultured in Sf-90011 medium supplemented with 10% (v/v) fetal calf serum at 28° C. to give a count of 6×10^5 cells/ml. The cells were then infected with a mixture of the virus stocks for the α1 and β1 subunits of guanylate cyclase at a multiplicity of infection of 0.1 pfu/cell. The cells were harvested 72 hours after infection and were pelleted by centrifugation. The resulting cell pellets were homogenized with Polytron homogenizer in 3 volumes of 20 mM Tris-HCl (pH 7.6) containing 1 mM EDTA, 5 mM dithiothreitol, 90 mM NaCl, 10% glycerol, and protease inhibitors mix (Roche Molecular Biochemicals). The homogenate was centrifuged at 50,000×g for 60 minutes and the supernatant was aliquotted and stored at −80° C.
Compounds of the present invention were dissolved in DMSO to make 100 mM and saved as stocks at −20° C. When compounds were tested, prepared 10-fold concentrated solutions with 10% DMSO. Then added 10 μl of 10-fold concentrated compound solutions to the reaction mixture of total 100 μl.
Guanylate cyclase activity was measured by the formation of cyclic GMP from GTP in a total volume of 100 μl. Guanylate cyclase-expressed Sf9 cell high-speed supernatant was used as an enzyme source for the assay. The reaction mixture containing 0.1 μl enzyme (Sf9 high-speed sup), compound solution, 50 mM Tris-HCl (pH 7.6), 4 mM MgCl2, 0.5 mM IBMX, 15 mM creatine phosphate, 20 μg creatine phosphokinase, 0.1% BSA and 1 mM GTP was incubated at 37° C. for 15 minutes. After the reaction, 0.9 ml of 50 mM sodium acetate buffer (pH 5.8) was added followed by boiling for 3 minutes to stop the reaction. The solution was centrifuged at 3000 rpm for 15 minutes at room temperature and cyclic GMP in 20 μl of the resulting supernatant was measured according to the protocol of Amersham cyclic GMP enzymeimmunoassay system (purchased from Sigma, catalogue number RPN 226).
Compounds of the present invention were tested at 100 μM with and without 1 μM sodium nitro prusside (SNP). 1-Benzyl-3-hydroxymethyl-2-furylindazole (YC-1) was included as a standard for each assay. The data was normalized with the activity of 100 μM YC-1 (without SNP) as 100%. Mean basal efficacy, in Table 1, was expressed as a percentage of 100 μM YC-1 (without SNP).
The mean activation, in Table 1, was calculated based on the formula: (activity of compound of the present invention at 100 μM with 1 μM SNP)−(activity of compound of the present invention at 100 μM)/(activity of SNP at 1 μM)−(basal activity of sGC).

Row | Mean activation at 100 μM | Mean efficacy of compound combined with 1 μM of SNP, [%] | Emax at 100 µM | Structure (SMILES)
1 | 6.3 | 199% | 90% | O=C(/C=C/c1cccnc1Sc1ccccc1Cl)NC1CCC(O)CC1 (stereo not drawn) [Example 20, (2E)-3-{2-[(2-chlorophenyl)thio]-3-pyridinyl}-N-(4-hydroxycyclohexyl)acrylamide]
2 | 4.1 | 106% | 45% | CC(C)CSc1ccccc1/C=C/C(=O)NC1CCCCC1O (stereo not drawn) [Example 21, (2E)-N-(2-hydroxycyclohexyl)-3-[2-(isobutylthio)phenyl]acrylamide]
3 | 3.9 | 169% | 158% | O=C(/C=C/c1ccccc1SC1CCCC1)NC1CCCCC1O (stereo not drawn) [Example 22, (2E)-3-[2-(cyclopentylthio)phenyl]-N-(2-hydroxycyclohexyl)acrylamide]
4 | 2.7 | 187% | 174% | O=C(/C=C/c1ccccc1SC1CCCCC1)NC1CCCCC1O (stereo not drawn) [Example 23, (2E)-3-[2-(cyclohexylthio)phenyl]-N-(2-hydroxycyclohexyl)acrylamide]
5 | 1.6 | 17% | 4% | CC(C)Sc1ccccc1/C=C/C(=O)NC1CCC(O)CC1 (stereo not drawn) [Example 24, (2E)-N-(4-hydroxycyclohexyl)-3-[2-(isopropylthio)phenyl]acrylamide]
6 | 9.5 | 430% | 242% | O=C(/C=C/c1ccccc1SC1CCCC1)NC1CCC(O)CC1 (stereo not drawn) [Example 25, (2E)-3-[2-(cyclopentylthio)phenyl]-N-(4-hydroxycyclohexyl)acrylamide]
7 | 7.9 | 506% | 353% | O=C(/C=C/c1ccccc1SC1CCCCC1)NC1CCC(O)CC1 (stereo not drawn) [Example 26, (2E)-3-[2-(cyclohexylthio)phenyl]-N-(4-hydroxycyclohexyl)acrylamide]
8 | 8.3 | 278% | 115% | CCCCCSc1ccccc1/C=C/C(=O)NC1CCC(O)CC1 (stereo not drawn) [Example 27, (2E)-N-(4-hydroxycyclohexyl)-3-[2-(pentylthio)phenyl]acrylamide]
9 | 2.6 | 18% | 6% | Cc1ccc(/C=C/C(=O)NC2CCC(O)CC2)c(Sc2ccc(Cl)cc2)n1 (stereo not drawn) [Example 28, (2E)-3-{2-[(4-chlorophenyl)thio]-6-methyl-3-pyridinyl}-N-(4-hydroxycyclohexyl)acrylamide]
10 | 3.7 | 187% | 93% | CC(CCCC(C)(C)O)NC(=O)/C=C/c1ccccc1Sc1ccc(Cl)cc1 (stereo not drawn) [Example 31, (2E)-3-{2-[(4-chlorophenyl)thio]phenyl}-N-(5-hydroxy-1,5-dimethylhexyl)acrylamide]
11 | 10.5 | 78% | 27% | CCNC(=O)/C=C/c1ccccc1Sc1ccc(Cl)cc1 [Example 32, (2E)-3-{2-[(4-chlorophenyl)thio]phenyl}-N-ethylacrylamide]
12 | 6.9 | 38% | 7% | CCCCNC(=O)/C=C/c1ccccc1Sc1ccc(Cl)cc1 [Example 33, (2E)-N-butyl-3-{2-[(4-chlorophenyl)thio]phenyl}acrylamide]
13 | 6.9 | 219% | 113% | O=C(/C=C/c1ccccc1Sc1ccc(Cl)cc1)NCCCCO [Example 34, (2E)-3-{2-[(4-chlorophenyl)thio]phenyl}-N-(4-hydroxybutyl)acrylamide]
14 | 6.3 | 228% | 49% | O=C(/C=C/c1ccccc1Sc1ccc(Cl)cc1)NCCCCCO [Example 35, (2E)-3-{2-[(4-chlorophenyl)thio]phenyl}-N-(5-hydroxypentyl)acrylamide]
15 | 9.2 | 212% | 66% | Cc1ccc(Sc2ccccc2/C=C/C(=O)NCCCCO)cc1 [Example 36, (2E)-N-(4-hydroxybutyl)-3-{2-[(4-methylphenyl)thio]phenyl}acrylamide]
16 | 30.6 | 405% | 70% | CC(O)CNC(=O)/C=C/c1ccccc1Sc1ccc(Cl)cc1 (stereo not drawn) [Example 37, (2E)-3-{2-[(4-chlorophenyl)thio]phenyl}-N-(2-hydroxypropyl)acrylamide]
17 | 19.0 | 259% | 60% | CC(O)CCNC(=O)/C=C/c1ccccc1Sc1ccc(Cl)cc1 (stereo not drawn) [Example 38, (2E)-3-{2-[(4-chlorophenyl)thio]phenyl}-N-(3-hydroxybutyl)acrylamide]
18 | 19.3 | 305% | 73% | CCC(O)CNC(=O)/C=C/c1ccccc1Sc1ccc(Cl)cc1 (stereo not drawn) [Example 39, (2E)-3-{2-[(4-chlorophenyl)thio]phenyl}-N-(2-hydroxybutyl)acrylamide]
19 | 6.3 | 366% | 100% | O=C(/C=C/c1ccccc1Sc1ccc(Cl)cc1)NC1CCCCC1O (stereo not drawn) [Example 40, (2E)-3-{2-[(4-chlorophenyl)thio]phenyl}-N-(2-hydroxycyclohexyl)acrylamide]
20 | 3.8 | 69% | 5% | O=C(/C=C/c1c(F)cccc1Sc1ccc(Cl)cc1)NCCCCO [Example 41, (2E)-3-{2-[(4-chlorophenyl)thio]-6-fluorophenyl}-N-(4-hydroxybutyl)acrylamide]
